Data published in PMC6273473 (Molecules, 2016).
Where “and” joins values, the source holds several entries; their conditions need not be identical. Identical values can stand only once. Entries after “also recorded” stand apart in the source; their conditions may differ. Counter-ions that a name gives are not always drawn. Like-named read-outs stand apart in the source and are kept apart here.

Columns and labels:
rMAO-B = biological target: T1, rMAO-B (Rattus norvegicus, UniProt P19643); test: rat MAO-B inhibition, kynuramine spectrophotometric assay; type: biochemical; settings: for inhibition at 10 µM: read-out: MAO-B % inhibition at 10 µM
T1 construct: from tissue; host or cells: rat brain mitochondrial homogenate
T1 sequence (P19643 1-520): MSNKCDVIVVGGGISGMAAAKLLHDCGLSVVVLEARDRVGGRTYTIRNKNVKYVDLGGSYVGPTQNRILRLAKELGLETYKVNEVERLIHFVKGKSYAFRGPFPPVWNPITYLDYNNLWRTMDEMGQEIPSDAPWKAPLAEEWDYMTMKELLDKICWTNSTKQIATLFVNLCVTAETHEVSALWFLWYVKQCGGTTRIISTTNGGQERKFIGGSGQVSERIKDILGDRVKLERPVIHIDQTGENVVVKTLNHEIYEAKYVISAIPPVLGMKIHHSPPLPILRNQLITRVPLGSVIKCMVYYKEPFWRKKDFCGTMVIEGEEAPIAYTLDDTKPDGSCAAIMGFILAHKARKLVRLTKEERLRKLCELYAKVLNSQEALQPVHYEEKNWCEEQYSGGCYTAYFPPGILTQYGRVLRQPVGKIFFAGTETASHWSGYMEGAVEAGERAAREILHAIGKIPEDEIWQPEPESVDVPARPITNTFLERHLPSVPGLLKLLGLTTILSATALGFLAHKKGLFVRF
Description: (§1) MAO inhibitory activities were measured on rat brain mitochondrial homogenates [21].
(§2) The rMAO inhibitory activity of compounds in Table 1 was assessed using a continuous spectrophotometric assay [28], monitoring the rate of oxidation of the nonselective nonfluorescent MAO substrate kynuramine to 4-hydroxyquinoline, as previously reported [21]. […] Finally, IC50 values were determined by nonlinear regression of MAO inhibition vs. -log of the concentration plots, using the program Origin, Version 6.0 (Microcal Software Inc., Northampton, MA, USA).

rMAO-A = biological target: T2, rMAO-A (Rattus norvegicus, UniProt P21396); test: rat MAO-A inhibition, kynuramine spectrophotometric assay; type: biochemical; settings: rat brain homogenates; for inhibition at 10 µM: read-out: MAO-A % inhibition at 10 µM
T2 construct: from tissue; host or cells: rat brain mitochondrial homogenate
T2 sequence (P21396 1-526): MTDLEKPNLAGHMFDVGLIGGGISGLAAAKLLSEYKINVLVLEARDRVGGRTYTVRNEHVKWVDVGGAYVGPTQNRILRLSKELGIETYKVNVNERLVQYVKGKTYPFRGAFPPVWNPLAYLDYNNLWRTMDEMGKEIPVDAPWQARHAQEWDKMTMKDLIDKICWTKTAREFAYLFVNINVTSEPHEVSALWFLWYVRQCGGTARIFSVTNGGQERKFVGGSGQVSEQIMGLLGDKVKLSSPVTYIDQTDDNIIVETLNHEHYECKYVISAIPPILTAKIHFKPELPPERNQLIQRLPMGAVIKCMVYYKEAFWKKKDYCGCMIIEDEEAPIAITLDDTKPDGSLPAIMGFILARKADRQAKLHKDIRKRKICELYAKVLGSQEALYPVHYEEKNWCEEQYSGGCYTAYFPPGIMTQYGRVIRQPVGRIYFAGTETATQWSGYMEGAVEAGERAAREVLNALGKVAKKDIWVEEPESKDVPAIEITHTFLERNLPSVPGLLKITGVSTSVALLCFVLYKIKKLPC
Description: as §1, §2

[1] = biological target: T3, electric eel AChE (eeAChE) (Electrophorus electricus, UniProt O42275); test: biochemical
T3 construct: purchased Sigma Aldrich, Milan, Italy
T3 sequence (O42275 24-633): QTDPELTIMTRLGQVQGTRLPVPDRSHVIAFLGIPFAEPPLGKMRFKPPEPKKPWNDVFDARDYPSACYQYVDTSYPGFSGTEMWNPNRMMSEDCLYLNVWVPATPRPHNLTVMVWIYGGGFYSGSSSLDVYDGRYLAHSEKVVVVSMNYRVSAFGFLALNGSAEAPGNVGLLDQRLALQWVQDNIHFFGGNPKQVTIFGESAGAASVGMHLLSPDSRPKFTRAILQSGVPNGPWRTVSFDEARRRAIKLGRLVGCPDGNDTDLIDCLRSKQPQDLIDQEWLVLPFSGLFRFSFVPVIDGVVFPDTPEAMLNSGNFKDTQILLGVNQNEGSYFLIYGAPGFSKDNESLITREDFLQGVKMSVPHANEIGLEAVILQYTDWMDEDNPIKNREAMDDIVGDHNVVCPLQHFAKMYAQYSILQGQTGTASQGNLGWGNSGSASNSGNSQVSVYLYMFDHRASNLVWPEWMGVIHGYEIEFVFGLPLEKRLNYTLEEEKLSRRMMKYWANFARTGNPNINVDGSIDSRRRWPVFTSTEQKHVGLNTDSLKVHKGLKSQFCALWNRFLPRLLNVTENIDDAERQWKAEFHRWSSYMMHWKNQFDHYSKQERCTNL

[2] = biological target: T4, equine serum butyrylcholinesterase (esBChE) (Equus caballus, UniProt P81908); test: BChE inhibition, Ellman's method; type: biochemical; settings: read-out: BChE % inhibition at 10 µM
T4 construct: BChE from equine serum (13 U/mg; Sigma); purchased Sigma; host or cells: equine serum
T4 sequence (P81908 whole entry): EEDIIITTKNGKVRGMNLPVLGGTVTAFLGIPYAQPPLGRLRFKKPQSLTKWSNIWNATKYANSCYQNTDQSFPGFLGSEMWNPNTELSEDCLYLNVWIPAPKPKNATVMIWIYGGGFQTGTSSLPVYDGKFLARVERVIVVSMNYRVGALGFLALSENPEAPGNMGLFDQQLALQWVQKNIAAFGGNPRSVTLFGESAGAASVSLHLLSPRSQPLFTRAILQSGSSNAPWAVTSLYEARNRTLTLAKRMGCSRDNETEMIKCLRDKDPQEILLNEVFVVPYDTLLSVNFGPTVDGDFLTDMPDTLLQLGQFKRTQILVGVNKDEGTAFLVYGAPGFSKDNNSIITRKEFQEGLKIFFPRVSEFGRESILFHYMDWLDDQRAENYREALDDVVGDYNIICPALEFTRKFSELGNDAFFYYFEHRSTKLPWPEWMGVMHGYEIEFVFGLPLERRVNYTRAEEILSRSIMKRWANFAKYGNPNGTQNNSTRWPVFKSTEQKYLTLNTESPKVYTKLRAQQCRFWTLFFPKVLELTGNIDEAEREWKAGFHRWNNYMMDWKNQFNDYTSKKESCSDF
Description: 2H-Chromen-2-ones 3a–m and 8 were evaluated as inhibitors of electric eel AChE (eeAChE), equine serum butyrylcholinesterase (esBChE) and rat MAOs (rMAO-A and rMAO-B). In vitro enzymatic assays on ChEs were accomplished through the well-known spectrophotometric Ellman’s method [20].

P-gp (MDR1) = test: in vitro; settings: dog, MDCK-MDR1, pH 7.4
SH-SY5Y cells [3] = test: Neuroprotection against oxidative stress insults, MTT assay; type: cell-based, human
Description: Therefore, a preliminary evaluation of the cytotoxicity and neuroprotective efficacy of this hit compound was undertaken in the human SH-SY5Y neuroblastoma cell line by following the 3-(4,5-dimethylthiazol-2-yl)-2,5-diphenyl-tetrazolium bromide (MTT) assay [22].
Human neuroblastoma SH-SY5Y cells were dispensed into 96-well microtiter plates at a density of 10,000 cells/well. […] The cell viability was determined by the MTT assay and analyzed as above described. Each compound was tested in triplicate, and the experiments were repeated three times. Statistical significance was assigned to p < 0.01 and calculated using a one-way analysis of variance (ANOVA) followed by the Bonferroni post hoc tests (GraphPad Prism vers. 5).
Results are expressed as the percentage of viable cells, and data represent the means ± SD (n = 3).

SH-SY5Y cells [4] = test: Cytotoxicity, MTT assay; type: cell-based; settings: 24 h incubation, 0.1–50 µM
Description: Human neuroblastoma cells SH-SY5Y were maintained at 37 °C in a humidified incubator containing 5% CO2 in DMEM nutrient (Lonza) supplemented with 10% heat inactivated FBS, 2 mM L-glutamine, 100 U/mL penicillin and 100 µg/mL streptomycin. Cells were dispensed into 96-well microtiter plates at a density of 10,000 cells/well. […] Then, the plates were incubated at 37 °C for 24 h. An amount of 10 µL of 0.5% w/v MTT was further added to each well, and the plates were incubated for an additional 3 h at 37 °C. Finally, the cells were lysed by the addition of 100 µL of DMSO/EtOH 1:1 (v/v) solution.
Untreated cells were used as the control.

[5] = from electric eel, read-out: AChE IC50
[6] = determined after 30 min pre-incubation

`NC(=O)CNCc1cc2ccccc2oc1=O` [Compound 3a, N^2-[(2-oxo-2H-Chromen-3-yl)methyl]glycinamide] showed an inhibition at 10 µM (rMAO-B; rat brain homogenates) of less than 5%, an inhibition at 10 µM (rMAO-A) of less than 5% and an IC50 [1, 5] of 12 ± 1 µM. The inhibition at 10 µM ([2]; from equine serum, 10 µM) was 6.2%.

`CN(Cc1cccc(F)c1)Cc1cc2ccccc2oc1=O` [Compound 3b, 3-{[(3-Fluorobenzyl)(methyl)amino]methyl}-2H-chromen-2-one hydrochloride] gave an inhibition at 10 µM (rMAO-B; rat brain homogenates) of less than 5%, an inhibition at 10 µM (rMAO-A) of less than 5% and an IC50 ([1]; AChE IC50, from electric eel) of 6.8 ± 0.1 µM. For the same compound, the inhibition at 10 µM ([2]; from equine serum, 10 µM) was 15%.

Compound `C#CCN(C)Cc1cc2ccccc2oc1=O` [Compound 3c, 3-{[Methyl(prop-2-yn-1-yl)amino]methyl}-2H-chromen-2-one] has an IC50 (rMAO-B; rat brain homogenates, determined after 30 min pre-incubation, read-out: MAO-B IC50) of 0.377 ± 0.014 µM, an IC50 (rMAO-A; [6]) of 7 ± 1.4 µM and an IC50 [1, 5] of 8.4 ± 0.5 µM. For the same compound, the inhibition at 10 µM ([2]; from equine serum, 10 µM) was less than 5%.

In the case of `COc1ccc2cc(CN(C)Cc3cccc(F)c3)c(=O)oc2c1` [Compound 3d, 3-{[(3-Fluorobenzyl)(methyl)amino]methyl}-7-methoxy-2H-chromen-2-one], the inhibition at 10 µM (rMAO-B; rat brain homogenates) is reported as less than 5%, the inhibition at 10 µM (rMAO-A) is reported as 6% and the IC50 [1, 5] is reported as 6.6 ± 0.1 µM. It also gave an inhibition at 10 µM ([2]; from equine serum, 10 µM) of 8.5%.

`COc1ccc2cc(CN(C)Cc3cccc(C#N)c3)c(=O)oc2c1` [Compound 3e, 3-{[[(7-Methoxy-2-oxo-2H-chromen-3-yl)methyl](methyl)amino]methyl}benzonitrile] was tested, and the inhibition at 10 µM (rMAO-B; rat brain homogenates) was less than 5%, the inhibition at 10 µM (rMAO-A) was 9.2% and the IC50 [1, 5] was 8.4 ± 0.3 µM. The inhibition at 10 µM ([2]; from equine serum, 10 µM) was less than 5%.

`C#CCN(C)Cc1cc2ccc(OC)cc2oc1=O` [Compound 3f, 7-Methoxy-3-{[methyl(prop-2-yn-1-yl)amino]methyl}-2H-chromen-2-one hydrochloride] gave an IC50 ([1]; AChE IC50, from electric eel) of 14 ± 1 µM and an inhibition at 10 µM [2] of 13%.

Work on `COc1cc2cc(CN(C)Cc3cccc(Cl)c3)c(=O)oc2cc1OC` [Compound 3g, 3-{[(3-Chlorobenzyl)(methyl)amino]methyl}-6,7-dimethoxy-2H-chromen-2-one hydrochloride] yielded an inhibition at 10 µM (rMAO-B; rat brain homogenates) of less than 5%, an inhibition at 10 µM (rMAO-A) of 7% and an IC50 ([1]; AChE IC50, from electric eel) of 4.4 ± 1.1 µM. The inhibition at 10 µM ([2]; from equine serum, 10 µM) was 19%.

Compound `C#CCN(C)Cc1cc2cc(OC)c(OC)cc2oc1=O.Cl` [Compound 3h, 6,7-Dimethoxy-3-{[methyl(prop-2-yn-1-yl)amino]methyl}-2H-chromen-2-one hydrochloride] has an IC50 (rMAO-B) of 0.0028 ± 0.0004 µM, a Papp A→B at 120 min, 75 µM (P-gp (MDR1)) of 22.7 ×10⁻⁶ cm/s and a Papp B→A at 120 min, 75 µM (P-gp (MDR1)) of 21.8 ×10⁻⁶ cm/s. For the same compound, the “Neuroprotection against oligomycin-A” value (SH-SY5Y cells [3]; 0.1 µM compound, oligomycin-A 30 µM, 24 h co-incubation) was “moderate neuroprotection; also recorded: promising neuroprotective effect”, the Neuroprotection against rotenone (SH-SY5Y cells [3]; 0.1 µM compound, rotenone 75 µM, 24 h co-incubation) was “moderate neuroprotection; also recorded: promising neuroprotective effect” and the “Neuroprotection (cell survival)” value (SH-SY5Y cells [3]; 1 µM compound, 24 h co-incubation with H2O2 195 µM, oligomycin-A 30 µM or rotenone 75 µM) was “no increase of cell survival”. The P-gp substrate (MDCKII-MDR1 cells) was “not likely to be a substrate for P-gp; also recorded: did not result in a glycoprotein-p (P-gp) substrate”, the inhibition at 10 µM (rMAO-A; [6]) was less than 5% and the IC50 ([1]; AChE IC50, from electric eel) was 8.99 µM and 9 µM. The “Cytotoxicity (viability of SH-SY5Y cells)” value (SH-SY5Y cells [4]) was “negligible cytotoxicity; also recorded: low cytotoxicity” and the inhibition at 10 µM ([2]; from equine serum, 10 µM) was less than 5%.

`CNCc1cc2cc(OC)c(OC)cc2oc1=O` [Compound 3i, 6,7-Dimethoxy-3-[(methylamino)methyl]-2H-chromen-2-one hydrochloride] gave an inhibition at 10 µM (rMAO-B; rat brain homogenates) of less than 5%, an inhibition at 10 µM (rMAO-A) of less than 5% and an IC50 ([1]; AChE IC50, from electric eel) of 13 ± 1 µM. It also gave an inhibition at 10 µM ([2]; from equine serum, 10 µM) of 10%.

For `COc1cc2cc(CNCc3ccccc3)c(=O)oc2cc1OC` [Compound 3j, 3-[(Benzylamino)methyl]-6,7-dimethoxy-2H-chromen-2-one], the inhibition at 10 µM (rMAO-B; rat brain homogenates) was less than 5%, the inhibition at 10 µM (rMAO-A) was less than 5% and the IC50 [1, 5] was 2.78 µM and 2.8 µM. For the same compound, the inhibition at 10 µM ([2]; from equine serum, 10 µM) was 27%.

Work on `COc1cc2cc(CNCc3ccc(C#N)cc3)c(=O)oc2cc1OC` [Compound 3k, 4-({[(6,7-Dimethoxy-2-oxo-2H-chromen-3-yl)methyl]amino}methyl)benzonitrile] yielded an inhibition at 10 µM (rMAO-B; rat brain homogenates) of less than 5%, an inhibition at 10 µM (rMAO-A) of 20% and an IC50 [1, 5] of 8.4 ± 1.1 µM. The inhibition at 10 µM ([2]; from equine serum, 10 µM) was 13%.

`COc1cc2cc(CNCC(N)=O)c(=O)oc2cc1OC` [Compound 3l, N^2-[(6,7-Dimethoxy-2-oxo-2H-chromen-3-yl)methyl]glycinamide] gave an inhibition at 10 µM (rMAO-B; rat brain homogenates) of less than 5%, an inhibition at 10 µM (rMAO-A) of less than 5% and an IC50 [1, 5] of 8 ± 1.2 µM. For the same compound, the inhibition at 10 µM ([2]; from equine serum, 10 µM) was 10%.

`CNC(=O)CNCc1cc2cc(OC)c(OC)cc2oc1=O` [Compound 3m, N^2-[(6,7-Dimethoxy-2-oxo-2H-chromen-3-yl)methyl]-N^1-methylglycinamide] was tested, and the inhibition at 10 µM (rMAO-B; rat brain homogenates) was less than 5%, the inhibition at 10 µM (rMAO-A) was less than 5% and the IC50 [1, 5] was 7.7 ± 0.4 µM. The inhibition at 10 µM ([2]; from equine serum, 10 µM) was 11%.

`C#CCN(C)Cc1cc2cc(OC)c(O)cc2oc1=O` [Compound 8, 7-Hydroxy-6-methoxy-3-{[methyl(prop-2-yn-1-yl)amino]methyl}-2H-chromen-2-one] showed an inhibition at 10 µM (rMAO-B; rat brain homogenates, determined after 30 min pre-incubation) of 11%, an inhibition at 10 µM (rMAO-A; [6]) of 35% and an IC50 [1, 5] of 9.3 ± 0.4 µM. It also gave an inhibition at 10 µM ([2]; from equine serum, 10 µM) of less than 5%.
